In US12162861B2, “Dopamine D3 receptor selective antagonists/partial agonists; method of making; and use thereof” (THE UNITED STATES OF AMERICA, AS REPRESENTED BY THE …, priority 2016, dated 2024):
Entries after “also recorded” stand apart in the source; their conditions may differ.

Legend:
[1] = Phase I metabolic stability in rat liver microsomes; format: in vitro ADME; conditions: FIG. 2; 10 μM, 0.5 mg/mL microsomes
Experimental: Methods: Phase I metabolic stability assay was conducted in rat and rhesus monkey liver microsomes. For phase I metabolism, the reaction was carried out with 100 mM potassium phosphate buffer, pH 7.4, in the presence of NADPH regenerating system (1.3 mM NADPH, 3.3 mM glucose 6-phosphate, 3.3 mM MgCl2, 0.4 U/mL glucose-6-phosphate dehydrogenase, 50 μM sodium citrate). Reactions in triplicate were initiated by addition of the liver microsomes to the incubation mixture (compound final concentration was 10 μM; 0.5 mg/mL microsomes). Negative controls in the absence of cofactors were carried out to determine the specific cofactor-free degradation. Compound disappearance was monitored via LC/MS/MS. Chromatographic analysis was performed using an Accela™ ultra high-performance system consisting of an analytical pump, and an autosampler coupled with TSQ Vantage mass spectrometer (Thermo Fisher Scientific Inc., Waltham MA). […] The mobile phase used was composed of 0.1% Formic Acid in Acetonitrile and 0.1% Formic Acid in H2O with gradient elution, starting with 10% (organic) linearly increasing to 99% up to 2 min, maintaining at 99% (2-2.5 min) and re-equilibrating to 10% by 2.7 min. The total run time for each analyte was 5.0 min.

[2] = Mouse microsomal stability assay; format: in vitro ADME; conditions: mouse liver microsomes, Phase I, 10 μM compound, 0.5 mg/mL microsomes
Experimental: Mouse Microsomal Stability Assay. […] The reaction was carried out with 100 mM potassium phosphate buffer, pH 7.4, in the presence of NADPH regenerating system, (compound final concentration was 10 μM; 0.5 mg/mL microsomes). Positive controls for phase I metabolism (testosterone) were also evaluated. Compound disappearance was monitored over time using a liquid chromatography and tandem mass spectrometry (LC/MS/MS) method. All reactions were sampled in triplicate. Chromatographic analysis was performed using an Accela ultra high-performance system consisting of an analytical pump and an autosampler coupled with a TSQ Vantage mass spectrometer (Thermo Fisher Scientific Inc., Waltham, MA). […] The mobile phase used was composed of 0.1% formic acid in acetonitrile and 0.1% formic acid in H2O with gradient elution, starting with 10% (organic) linearly increasing to 99% up to 2 min, maintaining at 99% (2-2.5 min) and reequilibrating to 10% by 2.7 min. The total run time for each analyte was 4.5 min.

[3] = target: T1, human D3R (Homo sapiens, UniProt P35462); test: Radioligand competition binding, [3H]N-methylspiperone, D3R; conditions: Table 1A; HEK 293 cells transfected with hD3R, [3H]N-methylspiperone; read-out: D3R K ± SEM
T1 construct: expressed in transfected cells; host or cells: HEK293
T1 sequence (P35462 whole entry): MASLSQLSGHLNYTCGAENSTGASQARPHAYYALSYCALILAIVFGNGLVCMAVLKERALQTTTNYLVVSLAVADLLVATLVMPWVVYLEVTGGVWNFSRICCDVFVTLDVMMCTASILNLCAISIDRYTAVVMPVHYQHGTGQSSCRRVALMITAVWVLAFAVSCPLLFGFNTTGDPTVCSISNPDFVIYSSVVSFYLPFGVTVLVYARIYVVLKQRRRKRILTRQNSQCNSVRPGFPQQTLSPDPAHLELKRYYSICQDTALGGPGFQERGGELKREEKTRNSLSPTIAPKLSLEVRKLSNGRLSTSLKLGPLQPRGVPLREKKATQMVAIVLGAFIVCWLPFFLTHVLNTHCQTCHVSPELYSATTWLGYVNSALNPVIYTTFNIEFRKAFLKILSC
Experimental: Binding at dopamine D2-like receptors was determined using previously described methods. […] Upon reaching 80-90% confluence, cells were harvested using pre-mixed Earle's Balanced Salt Solution (EBSS) with 5 μM EDTA (Life Technologies) and centrifuged at 3000 rpm for 10 min at 21° C. The supernatant was removed and the pellet was resuspended in 10 mL hypotonic lysis buffer (5 mM MgCl2·6H2O, 5 mM Tris, pH 7.4 at 4° C.) and centrifuged at 20,000 rpm for 30 min at 4° C. The pellet was then resuspended in fresh EBSS buffer made from 8.7 g/L Earle's Balanced Salts without phenol red (US Biological, Salem, MA), 2.2 g/L sodium bicarbonate, pH to 7.4. A Bradford protein assay (Bio-Rad, Hercules, CA) was used to determine the protein concentration and membranes were diluted to 500 μg/mL and stored in a −80° C. freezer for later use.
Radioligand competition binding experiments were conducted using thawed membranes. Test compounds were freshly dissolved in 30% DMSO and 70% H2O to a stock concentration of 100 μM. To assist the solubilization of free-base compounds, 10 μl of glacial acetic acid was added along with the DMSO. Each test compound was then diluted into 13 half-log serial dilutions using 30% DMSO vehicle; final test concentrations ranged from 10 μM to 10 pM. Previously frozen membranes were diluted in fresh EBSS to a 100 μg/mL (for hD2R or hD3R) or 200 μg/mL (hD4R) stock for binding. Radioligand competition experiments were conducted in glass tubes containing 300 μl fresh EBSS buffer with 0.2 mM sodium metabisulfite, 50 μl of diluted test compound, 100 μl of membranes (10 μg total protein for hD2R or hD3R, 20 μg total protein for hD4R), and 50 μl of [^3H]N-methylspiperone (0.4 nM final concentration; Perkin Elmer). Nonspecific binding was determined using 10 μM butaclamol (Sigma-Aldrich, St. Louis, MO) and total binding was determined with 30% DMSO vehicle. All compound dilutions were tested in triplicate and the reaction incubated for one hour at room temperature. The reaction was terminated by filtration through Whatman GF/B filters, presoaked for one hour in 0.5% polyethylenimine, using a Brandel R48 filtering manifold (Brandel Instruments, Gaithersburg, MD). The filters were washed 3 times with 3 mL of ice cold EBSS buffer and transferred to scintillation vials. […] IC50 values for each compound were determined from dose-response curves and Ki values were calculated using the Cheng-Prusoff equation; these analyses were performed using GraphPad Prism version 5.00 for Windows (GraphPad Software, San Diego, CA). Reported Ki values were determined from least three independent experiments.

SMILES: CCc1cc(Cl)c(OC)c(N2CCN(CC(O)CCNC(=O)c3cc4ccccc4[nH]3)CC2)c1 (racemic) [Compound 29, N-(4-(4-(3-chloro-5-ethyl-2-methoxyphenyl)piperazin-1-yl)-3-hydroxybutyl)-1H-indole-2-carboxamide]
- metabolic stability in rat liver microsomes versus PG648 [1]: improved metabolic stability as compared to Compound 1; also recorded: significantly more stable than PG648
- % remaining over 1 h [2]: > 80%
- Ki [3]: 6.29 nM
